5 compounds from PubChem BioAssay (NCI) can be followed below.

Some test systems named below: A549 NSCLC; CAKI-1 renal; HCT-15 colon; K-562 leukemia; KM12 colon; MCF7 breast; MDA-MB-231 breast; NCI-H226 lung; NCI-H460 lung; SNB-19 CNS.
What all share (test): DTP human tumour cell line panel, 48 h

Molecules are shown by their SMILES. Where “and” joins values, the source holds several entries; their conditions need not be identical. Equal values may be shown once.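 Protocol summary: plate cells (96-well), add compound at 5 concentrations, incubate 48 h, interpolate endpoints linearly. GI50 marks 50% less growth. Definition used: TGI = concentration required for complete inhibition of growth.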

Broadly, the TGI is the concentration giving total growth inhibition. Take `CC(CO)[C@H]1OC(=O)C=C2[C@@]13O[C@@H]3[C@H]1OC(=O)[C@@]3(C)[C@H]4O[C@H]4C[C@@]2(C)[C@@H]13` (stereo not given in full): the total growth inhibition concentration (TGI) with A549 NSCLC is more than 39.8 µM; in the assay on CAKI-1 renal it was 8.25 µM; in the assay on HCT-15 colon, more than 31 µM; with K-562 leukemia, more than 100 µM; with KM12 colon it was 14.9 µM; with MCF7 breast, 8.05 µM. Besides, the TGI in the assay on MDA-MB-231 breast was more than 29.6 µM; in the assay with NCI-H226 lung, 5.47 µM; in the assay with NCI-H460 lung, more than 24.4 µM; in the assay on SNB-19 CNS it was more than 30.8 µM.
In general, GI50 refers to the concentration at which growth is held to half of that of the control. For the compound `C[C@]12CC[C@@H]3c4ccc(O)c([N+](=O)[O-])c4CC[C@H]3[C@@H]1CC[C@@H]2NS(=O)(=O)c1ccc(C(F)(F)F)cc1`, the GI50 in the assay on A549 NSCLC is 1.98 µM; in the assay on CAKI-1 renal it was 2.17 µM; with HCT-15 colon, 1.71 µM; with K-562 leukemia, 2.02 µM; in the assay with KM12 colon, 1.76 µM; with MCF7 breast it was 1.91 µM. Also, the GI50 was 1.49 µM with MDA-MB-231 breast, 1.62 µM with NCI-H226 lung, 2.11 µM in the assay with NCI-H460 lung and 2.79 µM in the assay on SNB-19 CNS. Besides, the TGI in the assay on A549 NSCLC came out at 6.07 µM; in the assay on CAKI-1 renal, 6.24 µM; in the assay on HCT-15 colon it was 3.58 µM; in the assay with K-562 leukemia, 5.84 µM; with KM12 colon it was 3.51 µM; in the assay on MCF7 breast, 4.23 µM. Also, the TGI in the assay on MDA-MB-231 breast turned out to be 2.93 µM; in the assay with NCI-H226 lung, 3.78 µM; with NCI-H460 lung, 4.83 µM; with SNB-19 CNS, 11.2 µM.
Turning to `CC(C)n1c(/C=C/[C@@H](O)C[C@@H](O)CC(=O)O)c(-c2ccc(F)cc2)c2ccccc21`, the GI50 with A549 NSCLC was 5.93 µM and 6.99 µM; with CAKI-1 renal, 0.594 µM and 0.542 µM; with HCT-15 colon, 3.04 µM and 1.66 µM; in the assay on K-562 leukemia it was 5.94 µM and 6.56 µM; in the assay on KM12 colon it was 16.6 µM and 21.9 µM; in the assay on MCF7 breast, 20.7 µM and 16.6 µM. The GI50 is 0.219 µM with MDA-MB-231 breast; 2.89 µM and 3.71 µM with NCI-H226 lung; 3.91 µM and 4.98 µM in the assay on NCI-H460 lung; 4.23 µM and 1.32 µM in the assay with SNB-19 CNS. Moreover, the TGI in the assay on A549 NSCLC was more than 100 µM; in the assay with CAKI-1 renal, 2.99 µM and 2.69 µM; in the assay on HCT-15 colon, more than 100 µM; with K-562 leukemia it was more than 100 µM; with KM12 colon it was more than 100 µM; in the assay with MCF7 breast, more than 100 µM. The TGI in the assay with MDA-MB-231 breast is 0.535 µM; with NCI-H226 lung, more than 100 µM; in the assay with NCI-H460 lung it was more than 100 µM; with SNB-19 CNS it was more than 100 µM.
As for `CSc1ccc(C2=Nn3c(nnc3-c3ccc(F)c(Cl)c3)SC2)cc1`, the GI50 in the assay with A549 NSCLC is 12.5 µM; in the assay on CAKI-1 renal, 22.5 µM; with HCT-15 colon, 10.1 µM; in the assay with K-562 leukemia it was 2.28 µM; in the assay on KM12 colon it was 7.78 µM; with MCF7 breast, 7.54 µM. Besides, the GI50 in the assay with MDA-MB-231 breast is 4.12 µM; with NCI-H226 lung it was 18.4 µM; with NCI-H460 lung it was 14.6 µM; in the assay with SNB-19 CNS, 10.7 µM. Also, the TGI is 29.7 µM in the assay with A549 NSCLC; more than 100 µM in the assay with CAKI-1 renal; more than 100 µM in the assay with HCT-15 colon; more than 100 µM with K-562 leukemia; 45.1 µM in the assay on KM12 colon; 25.8 µM in the assay with MCF7 breast. Moreover, the TGI with MDA-MB-231 breast was found to be 21 µM; with NCI-H226 lung, 75.7 µM; in the assay on NCI-H460 lung, 38.6 µM; in the assay with SNB-19 CNS, 32.7 µM.
In the case of `S=C(N/N=C/c1cc(Cl)cc(Cl)c1)NC12CC3CC(CC(C3)C1)C2`, the GI50 in the assay with A549 NSCLC was 3.51 µM; in the assay with CAKI-1 renal, 3.6 µM; in the assay with HCT-15 colon it was more than 56.6 µM; in the assay on K-562 leukemia it was more than 100 µM; in the assay with KM12 colon it was more than 100 µM; in the assay with MCF7 breast, more than 82.3 µM. Moreover, the GI50 is 3.99 µM in the assay with MDA-MB-231 breast, more than 29.9 µM with NCI-H226 lung, 2.66 µM in the assay on NCI-H460 lung and 5.99 µM in the assay on SNB-19 CNS. Also, the TGI with A549 NSCLC was more than 100 µM; with CAKI-1 renal, 92.8 µM; in the assay on HCT-15 colon it was more than 100 µM; with K-562 leukemia it was more than 100 µM; in the assay on KM12 colon it was more than 100 µM; in the assay on MCF7 breast, more than 100 µM. In addition, the TGI in the assay with MDA-MB-231 breast, in the assay on NCI-H226 lung, in the assay with NCI-H460 lung and in the assay on SNB-19 CNS was more than 100 µM in each case.
